Patent publication US5663207A, “Gem-dichlorocyclopropanes as antitumor agents” (priority 1995, dated 1997)
“Also recorded” adds a separate entry of the source.

Key:
[1] = target: T1, estrogen receptor (Rattus norvegicus, UniProt P06211); experiment: Receptor binding assay: displacement of [3H]-estradiol from rat uterine cytosol; design: species or system rat (Sprague-Dawley); details: for RBA (relative binding affinity): relative to estradiol = 100%, average of duplicate determinations minus nonspecific binding
T1 construct: ovariectomized rat uterine cytosolic estrogen receptor preparation; from tissue; host or cells: uterine cytosol of ovariectomized Sprague-Dawley rats (immature rats from Sasco are named as uterus source, mature ovariectomized rats)
T1 sequence (P06211 1-600): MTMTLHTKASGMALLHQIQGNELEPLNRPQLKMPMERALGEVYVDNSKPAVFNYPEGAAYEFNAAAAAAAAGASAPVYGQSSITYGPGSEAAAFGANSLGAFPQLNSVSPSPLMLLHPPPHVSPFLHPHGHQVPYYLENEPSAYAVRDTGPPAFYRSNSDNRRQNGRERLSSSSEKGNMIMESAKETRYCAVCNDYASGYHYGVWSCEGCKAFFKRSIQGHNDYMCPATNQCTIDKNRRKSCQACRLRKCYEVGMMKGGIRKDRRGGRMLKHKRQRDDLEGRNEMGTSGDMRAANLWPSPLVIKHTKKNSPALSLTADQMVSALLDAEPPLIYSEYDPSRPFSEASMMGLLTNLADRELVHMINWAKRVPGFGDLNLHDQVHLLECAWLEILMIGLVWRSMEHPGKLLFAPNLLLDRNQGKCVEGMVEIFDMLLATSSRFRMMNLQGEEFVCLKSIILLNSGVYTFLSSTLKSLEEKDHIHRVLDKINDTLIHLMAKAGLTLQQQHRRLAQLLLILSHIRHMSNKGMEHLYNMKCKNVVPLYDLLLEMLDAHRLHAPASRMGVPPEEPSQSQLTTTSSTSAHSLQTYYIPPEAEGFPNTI
Text: The biological evaluation of the test compounds consisted of the in vitro rat cytosolic estradiol receptor binding assay, the in vivo immature mouse uterotrophic (estrogenic) and antiuterotrophic (antiestrogenic) assays, and the in vitro suppression of the proliferation of the ER positive MCF-7 human breast cancer cell line. Estradiol (pure agonist), TAM (agonist in mice and antagonist in MCF-7), MER 25 (pure antagonist) and Analog II (antagonist in mice) were used in the assay as standards.
(§1) Vital-free immature female Swiss-Webster mice were obtained at 17-19 days of age from Sasco weighing 8-10 g, and were used in the uterotrophic and antiuterotrophic assays. Immature female Sprague-Dawley rats, obtained at 17-19 days of age from Sasco, weighing 28-33 g, were used as sources of uteri for the estradiol receptor binding assay. Animals were housed in wire topped polycarbonate cages at six animals per cage, with the environment controlled at 25° C. and a 12 h light/dark cycle. The animals received a diet of Wayne Lab Blox rodent chow and tap water ad libitum.
The RBAs of the test compounds were determined by the displacement of [^3 H]-estradiol in vitro, as described previously (DAY, B. W., […], R. A., JAIN, P., PENTO, J. T., MOUSISSIAN, G. K. AND MEYER, K. L. (1991), "Synthesis and biological evaluation of a series of 1,1-dichloro-2,2,3-triarylcyclopropanes as pure antiestrogens", Journal of Medicinal Chemistry, 34, 842; KORENMAN, S. G. (1969), "Comparative binding affinity of estrogens and its relation to estrogenic potency", Steroid, 13, 163). Mature female Sprague-Dawley rats were ovariectomized at least two weeks prior to the receptor binding experiment. Each test compound was assayed at three concentrations in duplicate over a range of 10^-3 -10^-5 M and 10^-6 -10^-8 M for the estradiol standard. The non-specific binding was determined by a parallel incubation of each compound with the addition of diethylstilbestrol to give a final concentration of 2×10^-5 M DES which was sufficient to saturate all the estrogen receptors present in the cytosolic fraction. Specific displacement for each compound was determined by subtraction of nonspecific displacement from total displacement. The [^3 H]-estradioldisplacement curve for each test compound was determined by linear repression analysis and plotted graphically. The relative binding affinity for each compound was calculated (BLISS, C.I. (1967), "The statistics in biology", McGraw Hill, Inc: New York).
^a Determined by competitive radiometric binding assay with rat
uterine cytosol as a source of receptor, [^3 H]estradiol as tracer,
and dextrancoated charcoal as absorbant for free ligand.
^c Binding affinities are expressed relative to that of estradiol =
100% (RBA = relative binding affinity) and are the average of duplicate
determinations minus nonspecific binding.
The relative binding affinities (RBAs), as determined by the competitive radiometric binding assay and measured by [^3 H]-estradiol displacement from the ovariectomized rat uterine cytosolic estrogen receptor preparation, after subtracting non-specific receptor binding, were calculated for all of the synthesized target compounds, TAM, MER 25, Analog II, and estradiol. The displacement curves were plotted as percent receptor-bound [^3 H]-estrodiol versus concentration of test compounds (not shown) and the receptor binding affinity of each compound is presented in Table II.

[2] = tested on: Immature Swiss-Webster female mice (uterine weight); experiment: Uterotrophic assay for estrogenic activity in immature mice; type: in vivo, mouse (Swiss-Webster)
Text: (§2) The biological evaluation of the test compounds consisted of the in vitro rat cytosolic estradiol receptor binding assay, the in vivo immature mouse uterotrophic (estrogenic) and antiuterotrophic (antiestrogenic) assays, and the in vitro suppression of the proliferation of the ER positive MCF-7 human breast cancer cell line.
as §1
Immature Swiss-Webster female mice (8-15 g) at 17-19 days of age were used. Estradiol was used in the dosage range of […] (total dose) as the assay standard. Each cyclopropyl analogue was examined at doses of 5, 25, and 100 μg (total dose). […] Estrogenic activity was measured as an increase in uterine weight produced by each test compound.

[3] = tested on: Immature Swiss-Webster female mice (estradiol-stimulated uterine weight); experiment: Antiuterotrophic assay for antiestrogenic activity in immature mice; type: in vivo, mouse (Swiss-Webster); details: 0.4, 0.8, and 1.6 mg; three-day assay; estradiol 0.03 μg
Text: as §2
Vital-free immature female Swiss-Webster mice were obtained at 17-19 days of age from Sasco weighing 8-10 g, and were used in the uterotrophic and antiuterotrophic assays. Immature female Sprague-Dawley rats, obtained at 17-19 days of age from Sasco, weighing 28-33 g, were used as sources of uteri for the estradiol receptor binding assay. Animals were housed in wire topped polycarbonate cages at six animals per cage, with the environment controlled at 25° C. and a 12 h light/dark cycle. […]
The antiestrogenic assay was conducted as described for the estrogenic assay, except that each mouse in the cyclopropyl treatment groups received a standard stimulating dose of estradiol (0.03 μg) in sesame oil (0.1 mL) and the test compounds or MER 25 were administered in isopropyl myristate (0.05 mL) in a dosage range of 0.4, 0.8 and 1.6 mg (total dose). […] Antiestrogenic activity was measured as a decrease in the estradiol-stimulated […] response in groups that received both the test compound and estradiol as compared to the group treated only with estradiol.

SMILES | RBA (relative binding affinity) [1] | RBA ranking (in words) ([1]; among the compounds tested) | uterine weight response (estrogenic activity, in words) ([2]; doses of 5, 25 and 100 μg (total dose)) | relative potency (uterotrophic) versus estradiol ([2]; of that of estradiol, doses of 5, 25, and 100 μg) | antiestrogenic activity: effect on estradiol-induced uterine weight gain (in words) [3]
CC(=O)Oc1ccc([C@H]2[C@@H](c3ccccc3)C2(Cl)Cl)cc1 (relative stereo) [Compound 10, 1,1-Dichloro-cis-2-(p-acetoxyphenyl)-3-phenylcyclopropane] | 0.07% |  |  |  | 
Oc1ccc(C2(c3ccc(O)cc3)C(Cl)(Cl)C23CCCCC3)cc1 [Compound 30, 1,1-Dichloro-2,2-bis-(p-hydroxyphenyl)-spiro[2.5]octane] | 0.62% | comparable to tamoxifen; also recorded: the highest | dose-dependent increase in uterine weight | 0.05% | augmented uterotrophic effects beyond the stimulating dose of estradiol
